Source: patent publication US20100298141A1, “SUBSTITUTED PYRIDINE N-OXIDE HERBICIDES” (E. I. DU PONT DE NEMOURS AND COMPANY, priority 2007, published 2010)

Key:
broadleaf signalgrass = assay: Test G preemergence test; assay type: in vivo, Brachiaria platyphylla; conditions: scale 0 to 100
littleseed canarygrass = assay: Test D preemergence test; assay type: in vivo, Phalaris minor; conditions: scale 0 to 100
Method in brief: (§1)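 Seeds planted and treated preemergence with test chemicals formulated in a non-phytotoxic solvent mixture containing surfactant. A dash means no test result.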

goosegrass = assay: Test G preemergence test; assay type: in vivo, Eleusine indica; conditions: scale 0 to 100
woolly cupgrass = assay: Test G preemergence test; assay type: in vivo, Eriochloa villosa; conditions: scale 0 to 100
green foxtail = assay: Test D preemergence test; assay type: in vivo, Setaria viridis; conditions: scale 0 to 100
Method in brief: as §1

sorghum = assay: Test G preemergence test; assay type: in vivo, Sorghum vulgare; conditions: scale 0 to 100
barnyardgrass = assay: Test G preemergence test; assay type: in vivo, Echinochloa crus-galli; conditions: scale 0 to 100
eastern black nightshade = assay: Test G preemergence test; assay type: in vivo, Solanum ptycanthum; conditions: scale 0 to 100
umbrella sedge = assay: Test B flooded paddy test; assay type: in vivo, Cyperus difformis; conditions: Flood, 250 g ai/ha, 13 to 15 days; scale 0 to 100, 0 no effect, 100 complete control
Method in brief: (§2)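 Pots were flooded to 3 cm above the soil surface at treatment, compound applied directly to the paddy water, and that depth held throughout. Plants were kept in a greenhouse for 13 to 15 days, then visually rated against untreated controls.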

cotton = assay: Test G preemergence test; assay type: in vivo, Gossypium hirsutum; conditions: scale 0 to 100
millet foxtail = assay: Test G preemergence test; assay type: in vivo, Setaria italica; conditions: scale 0 to 100
yellow foxtail = assay: Test G preemergence test; assay type: in vivo, Pennisetum glaucum; conditions: scale 0 to 100
itchgrass = assay: Test G preemergence test; assay type: in vivo, Rottboellia cochinchinensis; conditions: scale 0 to 100
corn = assay: Test G preemergence test; assay type: in vivo, Zea mays; conditions: scale 0 to 100
tall waterhemp = assay: Test G preemergence test; assay type: in vivo, Amaranthus tuberculatos; conditions: scale 0 to 100
annual bluegrass = assay: Test D preemergence test; assay type: in vivo, Poa annua; conditions: scale 0 to 100
Method in brief: as §1

wild oat = assay: Test D preemergence test; assay type: in vivo, Avena fatua; conditions: scale 0 to 100
Method in brief: as §1

duck salad = assay: Test B flooded paddy test; assay type: in vivo, Heteranthera limosa; conditions: Flood, 250 g ai/ha, 13 to 15 days; scale 0 to 100, 0 no effect, 100 complete control
Method in brief: as §2

Italian ryegrass = assay: Test D preemergence test; assay type: in vivo, Lolium multiflorum; conditions: scale 0 to 100
Method in brief: as §1

downy bromegrass = assay: Test D preemergence test; assay type: in vivo, Bromus tectorum; conditions: scale 0 to 100
Method in brief: as §1

millet = assay: Test G preemergence test; assay type: in vivo, Panicum miliaceum; conditions: scale 0 to 100
field violet = assay: Test D preemergence test; assay type: in vivo, Viola arvensis; conditions: scale 0 to 100
Method in brief: as §1

spring wheat = assay: Test D preemergence test; assay type: in vivo, Triticum aestivum; conditions: scale 0 to 100
Method in brief: as §1

winter wheat = assay: Test D preemergence test; assay type: in vivo, Triticum aestivum; conditions: scale 0 to 100
Method in brief: as §1

blackgrass = assay: Test D preemergence test; assay type: in vivo, Alopecurus myosuroides; conditions: scale 0 to 100
Method in brief: as §1

Cn1nc(C(F)(F)F)c(C[S+]([O-])c2cccc[n+]2[O-])c1OC(F)F (stereo not shown) [Compound 3]
Plant response rating, Signalgrass (broadleaf signalgrass; 31 g ai/ha): 0 | Plant response rating, Signalgrass (broadleaf signalgrass; 62 g ai/ha): 45 | Plant response rating, Signalgrass (broadleaf signalgrass; 125 g ai/ha): 60 | Plant response rating, Signalgrass (broadleaf signalgrass; 250 g ai/ha): 95 | Plant response rating, Canarygrass (littleseed canarygrass; 31 g ai/ha): 0 | Plant response rating, Canarygrass (littleseed canarygrass; 62 g ai/ha): 40 | Plant response rating, Canarygrass (littleseed canarygrass; 125 g ai/ha): 100 | Plant response rating, Canarygrass (littleseed canarygrass; 250 g ai/ha): 100 | Plant response rating, Goosegrass (goosegrass; 31 g ai/ha): 65 | Plant response rating, Goosegrass (goosegrass; 62 g ai/ha): 80 | Plant response rating, Goosegrass (goosegrass; 125 g ai/ha): 100 | Plant response rating, Goosegrass (goosegrass; 250 g ai/ha): 100 | Plant response rating, Cupgrass, Woolly (woolly cupgrass; 31 g ai/ha): 0 | Plant response rating, Cupgrass, Woolly (woolly cupgrass; 62 g ai/ha): 40 | Plant response rating, Cupgrass, Woolly (woolly cupgrass; 125 g ai/ha): 95 | Plant response rating, Cupgrass, Woolly (woolly cupgrass; 250 g ai/ha): 100 | Plant response rating, Foxtail, Green (green foxtail; 31 g ai/ha): 0 | Plant response rating, Foxtail, Green (green foxtail; 62 g ai/ha): 35 | Plant response rating, Foxtail, Green (green foxtail; 125 g ai/ha): 60 | Plant response rating, Foxtail, Green (green foxtail; 250 g ai/ha): 100 | Plant response rating, Sorghum (sorghum; 31 g ai/ha): 0 | Plant response rating, Sorghum (sorghum; 62 g ai/ha): 10 | Plant response rating, Sorghum (sorghum; 125 g ai/ha): 55 | Plant response rating, Sorghum (sorghum; 250 g ai/ha): 100 | Plant response rating, Barnyardgrass (barnyardgrass; 31 g ai/ha): 0 | Plant response rating, Barnyardgrass (barnyardgrass; 62 g ai/ha): 70 | Plant response rating, Barnyardgrass (barnyardgrass; 125 g ai/ha): 100 | Plant response rating, Barnyardgrass (barnyardgrass; 250 g ai/ha): 100 | Plant response rating, Nightshade (eastern black nightshade; 31 g ai/ha): 0 | Plant response rating, Nightshade (eastern black nightshade; 62 g ai/ha): 60 | Plant response rating, Nightshade (eastern black nightshade; 125 g ai/ha): 65 | Plant response rating, Nightshade (eastern black nightshade; 250 g ai/ha): 100 | Plant response rating, Umbrella Sedge (umbrella sedge): 100 | Plant response rating, Cotton (cotton; 31 g ai/ha): 0 | Plant response rating, Cotton (cotton; 62 g ai/ha): 0 | Plant response rating, Cotton (cotton; 125 g ai/ha): 10 | Plant response rating, Cotton (cotton; 250 g ai/ha): 25 | Plant response rating, Foxtail, Millet (millet foxtail; 31 g ai/ha): 0 | Plant response rating, Foxtail, Millet (millet foxtail; 62 g ai/ha): 80 | Plant response rating, Foxtail, Millet (millet foxtail; 125 g ai/ha): 100 | Plant response rating, Foxtail, Millet (millet foxtail; 250 g ai/ha): 100 | Plant response rating, Foxtail, Yellow (yellow foxtail; 31 g ai/ha): 0 | Plant response rating, Foxtail, Yellow (yellow foxtail; 62 g ai/ha): 75 | Plant response rating, Foxtail, Yellow (yellow foxtail; 125 g ai/ha): 100 | Plant response rating, Foxtail, Yellow (yellow foxtail; 250 g ai/ha): 100 | Plant response rating, Itchgrass (itchgrass; 31 g ai/ha): 0 | Plant response rating, Itchgrass (itchgrass; 62 g ai/ha): 45 | Plant response rating, Itchgrass (itchgrass; 125 g ai/ha): 60 | Plant response rating, Itchgrass (itchgrass; 250 g ai/ha): 90 | Plant response rating, Corn (corn; 31 g ai/ha): 0 | Plant response rating, Corn (corn; 62 g ai/ha): 0 | Plant response rating, Corn (corn; 125 g ai/ha): 10 | Plant response rating, Corn (corn; 250 g ai/ha): 60 | Plant response rating, Waterhemp (tall waterhemp; 31 g ai/ha): 0 | Plant response rating, Waterhemp (tall waterhemp; 62 g ai/ha): 0 | Plant response rating, Waterhemp (tall waterhemp; 125 g ai/ha): 100 | Plant response rating, Waterhemp (tall waterhemp; 250 g ai/ha): 100 | Plant response rating, Bluegrass (annual bluegrass; 31 g ai/ha): 0 | Plant response rating, Bluegrass (annual bluegrass; 62 g ai/ha): 20 | Plant response rating, Bluegrass (annual bluegrass; 125 g ai/ha): 100 | Plant response rating, Bluegrass (annual bluegrass; 250 g ai/ha): 100 | Plant response rating, Oat, Wild (wild oat; 31 g ai/ha): 0 | Plant response rating, Oat, Wild (wild oat; 62 g ai/ha): 0 | Plant response rating, Oat, Wild (wild oat; 125 g ai/ha): 10 | Plant response rating, Oat, Wild (wild oat; 250 g ai/ha): 20 | Plant response rating, Ducksalad (duck salad): 90 | Plant response rating, Ryegrass, Italian (Italian ryegrass; 31 g ai/ha): 0 | Plant response rating, Ryegrass, Italian (Italian ryegrass; 62 g ai/ha): 35 | Plant response rating, Ryegrass, Italian (Italian ryegrass; 125 g ai/ha): 45 | Plant response rating, Ryegrass, Italian (Italian ryegrass; 250 g ai/ha): 95 | Plant response rating, Bromegrass, Downy (downy bromegrass; 31 g ai/ha): 0 | Plant response rating, Bromegrass, Downy (downy bromegrass; 62 g ai/ha): 45 | Plant response rating, Bromegrass, Downy (downy bromegrass; 125 g ai/ha): 55 | Plant response rating, Bromegrass, Downy (downy bromegrass; 250 g ai/ha): 55 | Plant response rating, Millet (millet; 31 g ai/ha): 0 | Plant response rating, Millet (millet; 62 g ai/ha): 0 | Plant response rating, Millet (millet; 125 g ai/ha): 15 | Plant response rating, Millet (millet; 250 g ai/ha): 90 | Plant response rating, Field Violet (field violet; 31 g ai/ha): 70 | Plant response rating, Field Violet (field violet; 62 g ai/ha): 70 | Plant response rating, Field Violet (field violet; 125 g ai/ha): 85 | Plant response rating, Field Violet (field violet; 250 g ai/ha): 100 | Plant response rating, Wheat, Spring (spring wheat; 31 g ai/ha): 0 | Plant response rating, Wheat, Spring (spring wheat; 62 g ai/ha): 0 | Plant response rating, Wheat, Spring (spring wheat; 125 g ai/ha): 15 | Plant response rating, Wheat, Spring (spring wheat; 250 g ai/ha): 20 | Plant response rating, Wheat, Winter (winter wheat; 31 g ai/ha): 0 | Plant response rating, Wheat, Winter (winter wheat; 62 g ai/ha): 10 | Plant response rating, Wheat, Winter (winter wheat; 125 g ai/ha): 15 | Plant response rating, Wheat, Winter (winter wheat; 250 g ai/ha): 40 | Plant response rating, Blackgrass (blackgrass; 31 g ai/ha): 0 | Plant response rating, Blackgrass (blackgrass; 62 g ai/ha): 20 | Plant response rating, Blackgrass (blackgrass; 125 g ai/ha): 100 | Plant response rating, Blackgrass (blackgrass; 250 g ai/ha): 100
